From ChEMBL document CHEMBL5244278, “Bioisosteres of the Phenyl Ring: Recent Strategic Applications in Lead Optimization and Drug Design” (J Med Chem, 2021)
Values after ≈ are worked out from the molar mass of the structure shown. Blank lines part the entries; values can stand above or below the molecule they belong to.

Columns and labels:
physchem = conditions: buffer, pH 7.4
[1] = Metabolic stability in human liver microsomes assessed as parent compound remaining; assay type: ADME, Microsome
[2] = Inhibition of LFA-1/ICAM-1 (unknown origin) interaction; design: species or system Homo sapiens
[3] = Clearance in rat liver microsomes; assay type: ADME, Microsome
[4] = Solubility of compound at pH 6.8 by RapidFire mass spectrometry; assay type: physicochemical; conditions: buffer
[5] = Solubility of the compound in FaSSIF at pH 6.8 by RapidFire mass spectrometry; assay type: ADME; conditions: simulated gi fluid
[6] = Prodrug conversion in rat plasma assessed as formation of Isavuconazole from intermediate by measuring half life; assay type: ADME, cell-free
[7] = Prodrug conversion in rat plasma assessed as esterase mediated intermediate formation by measuring half life; assay type: ADME, cell-free
[8] = Solubility of the compound; assay type: physicochemical
[9] = biological target: Tyrosine-protein kinase ABL1 (Homo sapiens, UniProt P00519); test: Inhibition of ABL1 (unknown origin)
[10] = Lipophilicity, logD of the compound at pH 7.4; assay type: physicochemical; conditions: buffer
[11] = Dissociation constant, pKa of the compound; assay type: physicochemical
Cytochrome P450 3A4 = Cytochrome P450 3A4 (Homo sapiens, UniProt P08684); test: Inhibition of CYP3A4 (unknown origin); assay type: ADME
[12] = Lipophilicity, logD of the compound in 1-octanol and phosphate buffer by tandem mass spectrometer analysis; assay type: physicochemical; conditions: 1-octanol/phosphate buffer
hERG (KCNH2) = hERG (KCNH2) (Homo sapiens, UniProt Q12809); test: (§1) Inhibition of hERG channel; assay type: toxicity; conditions: human
[13] = Aqueous solubility of compound; assay type: physicochemical
[14] = Half life in human plasma; assay type: ADME, cell-free
[15] = Inhibition of human rhinovirus 3C protease; design: species or system Human rhinovirus sp.
in vitro [16] = conditions: human, liver microsomes
Human rhinovirus sp. = test: Inhibition of human rhinovirus 3C protease assessed as kobs/[I]
in vitro [17] = conditions: human, Caco-2
[18] = biological target: Voltage-gated inwardly rectifying potassium channel KCNH2 (Homo sapiens, UniProt Q12809); test: as §1; assay type: toxicity
Hepatitis C virus [19] = test: Antiviral activity against HCV GT2a-genotype assessed as inhibition of viral replication; assay type: functional, organism-based, Hepacivirus hominis
Hepatitis C virus [20] = test: microbe, parasite or virus in culture; conditions: GT1a-genotype
Hepatitis C virus [21] = test: Antiviral activity against HCV GT4a-genotype assessed as inhibition of viral replication; assay type: functional, organism-based, Hepacivirus hominis
Hepatitis C virus [22] = test: Antiviral activity against HCV GT3a-genotype assessed as inhibition of viral replication; assay type: functional, organism-based, Hepacivirus hominis
Hepatitis C virus [23] = test: microbe, parasite or virus in culture; conditions: GT1b-genotype
[24] = Half life in rat hepatocytes; assay type: ADME, cell-based, Hepatocyte
MDA-MB-231 = test: Antiproliferative activity against human MDA-MB-231 cells assessed as cell growth inhibition at 30 uM relative to control; assay type: functional
MIA PaCa-2 = test: Antiproliferative activity against human MIA PaCa-2 cells assessed as cell growth inhibition at 30 uM relative to control; assay type: functional
SU-DHL10 = test: Antiproliferative activity against human SU-DHL-10 cells assessed as cell growth inhibition at 30 uM relative to control; assay type: functional
[25] = Aqueous solubility of compound at pH 7.4; assay type: physicochemical
Trypanosoma cruzi = test: Antitrypanosomal activity against Trypanosoma cruzi trypomastigotes infected in mouse 3T3 cells assessed as reduction in parasite growth; assay type: functional, organism-based; conditions: NIH3T3

Sequence of Tyrosine-protein kinase ABL1 (P00519 whole entry): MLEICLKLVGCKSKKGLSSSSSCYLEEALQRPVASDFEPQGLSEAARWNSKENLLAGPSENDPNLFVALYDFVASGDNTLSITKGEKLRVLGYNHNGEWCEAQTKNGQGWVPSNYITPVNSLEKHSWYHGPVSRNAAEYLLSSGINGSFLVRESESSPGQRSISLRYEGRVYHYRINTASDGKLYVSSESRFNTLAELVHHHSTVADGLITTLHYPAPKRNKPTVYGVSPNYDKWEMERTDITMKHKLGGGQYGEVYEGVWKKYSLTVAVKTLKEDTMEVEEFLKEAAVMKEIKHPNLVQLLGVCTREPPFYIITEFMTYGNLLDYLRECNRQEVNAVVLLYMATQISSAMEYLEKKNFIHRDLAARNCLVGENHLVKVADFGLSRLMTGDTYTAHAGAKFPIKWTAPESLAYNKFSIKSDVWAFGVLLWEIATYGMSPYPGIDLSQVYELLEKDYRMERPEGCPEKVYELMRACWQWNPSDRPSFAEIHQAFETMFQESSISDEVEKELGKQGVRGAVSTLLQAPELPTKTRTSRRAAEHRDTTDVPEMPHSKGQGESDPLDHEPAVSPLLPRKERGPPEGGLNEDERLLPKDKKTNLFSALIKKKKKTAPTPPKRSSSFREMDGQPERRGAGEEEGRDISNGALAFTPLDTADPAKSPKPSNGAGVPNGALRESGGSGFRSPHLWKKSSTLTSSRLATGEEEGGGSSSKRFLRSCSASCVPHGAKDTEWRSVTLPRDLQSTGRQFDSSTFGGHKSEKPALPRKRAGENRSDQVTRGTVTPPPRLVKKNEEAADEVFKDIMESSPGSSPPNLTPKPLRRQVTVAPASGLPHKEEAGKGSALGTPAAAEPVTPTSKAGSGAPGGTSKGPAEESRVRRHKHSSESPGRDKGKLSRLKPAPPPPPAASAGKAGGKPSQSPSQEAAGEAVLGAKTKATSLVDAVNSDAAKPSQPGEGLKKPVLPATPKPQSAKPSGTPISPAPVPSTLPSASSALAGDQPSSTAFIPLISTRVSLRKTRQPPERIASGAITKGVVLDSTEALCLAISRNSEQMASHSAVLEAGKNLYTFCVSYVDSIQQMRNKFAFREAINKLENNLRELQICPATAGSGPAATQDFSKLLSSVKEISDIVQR
Sequence of Cytochrome P450 3A4 (P08684 whole entry): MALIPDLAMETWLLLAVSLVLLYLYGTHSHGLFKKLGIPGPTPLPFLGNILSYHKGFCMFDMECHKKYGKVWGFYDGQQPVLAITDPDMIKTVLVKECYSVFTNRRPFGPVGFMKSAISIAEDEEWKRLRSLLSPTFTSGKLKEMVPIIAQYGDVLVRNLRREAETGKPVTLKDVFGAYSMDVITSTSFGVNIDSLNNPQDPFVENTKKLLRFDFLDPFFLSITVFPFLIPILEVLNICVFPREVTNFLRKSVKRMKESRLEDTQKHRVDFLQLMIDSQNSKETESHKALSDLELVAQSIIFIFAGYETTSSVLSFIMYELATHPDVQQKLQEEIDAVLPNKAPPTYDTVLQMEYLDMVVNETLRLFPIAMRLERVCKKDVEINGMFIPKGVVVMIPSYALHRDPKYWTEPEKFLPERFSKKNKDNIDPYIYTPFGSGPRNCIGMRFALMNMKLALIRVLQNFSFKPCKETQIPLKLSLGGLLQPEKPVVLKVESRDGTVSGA
Sequence of Voltage-gated inwardly rectifying potassium channel KCNH2 (Q12809 whole entry): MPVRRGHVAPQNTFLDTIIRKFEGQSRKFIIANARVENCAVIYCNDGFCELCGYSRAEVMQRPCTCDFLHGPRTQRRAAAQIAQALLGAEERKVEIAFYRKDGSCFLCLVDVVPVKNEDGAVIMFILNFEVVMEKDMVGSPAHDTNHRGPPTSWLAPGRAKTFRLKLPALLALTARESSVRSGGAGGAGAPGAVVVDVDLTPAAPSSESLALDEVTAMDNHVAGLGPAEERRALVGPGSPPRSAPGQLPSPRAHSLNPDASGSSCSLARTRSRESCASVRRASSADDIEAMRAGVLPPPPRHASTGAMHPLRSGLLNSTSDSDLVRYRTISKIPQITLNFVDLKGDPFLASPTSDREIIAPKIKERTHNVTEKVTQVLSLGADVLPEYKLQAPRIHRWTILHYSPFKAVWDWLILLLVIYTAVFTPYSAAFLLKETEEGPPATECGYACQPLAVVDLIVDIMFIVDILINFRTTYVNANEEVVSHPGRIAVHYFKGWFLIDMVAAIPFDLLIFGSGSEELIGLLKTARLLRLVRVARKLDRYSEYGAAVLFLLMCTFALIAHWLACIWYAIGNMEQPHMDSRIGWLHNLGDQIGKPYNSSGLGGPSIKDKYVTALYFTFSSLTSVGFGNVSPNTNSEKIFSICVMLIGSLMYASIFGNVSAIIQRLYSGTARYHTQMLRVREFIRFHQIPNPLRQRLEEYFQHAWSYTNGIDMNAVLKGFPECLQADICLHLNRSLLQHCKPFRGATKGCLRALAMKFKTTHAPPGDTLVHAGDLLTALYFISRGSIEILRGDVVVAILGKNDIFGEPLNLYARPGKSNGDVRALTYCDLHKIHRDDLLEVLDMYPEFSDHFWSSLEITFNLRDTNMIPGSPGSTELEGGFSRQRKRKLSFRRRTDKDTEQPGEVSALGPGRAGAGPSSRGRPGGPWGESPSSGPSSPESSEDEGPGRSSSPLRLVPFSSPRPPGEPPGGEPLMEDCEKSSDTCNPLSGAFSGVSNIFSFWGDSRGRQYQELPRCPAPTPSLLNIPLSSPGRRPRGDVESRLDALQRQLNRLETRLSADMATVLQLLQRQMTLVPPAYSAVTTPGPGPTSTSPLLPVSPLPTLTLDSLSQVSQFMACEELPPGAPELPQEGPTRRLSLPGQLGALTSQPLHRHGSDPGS
Sequence of hERG (KCNH2) (Q12809 whole entry): as above

Compound: N#Cc1cccc(Br)c1
solubility (physchem): 637 µg/mL

Stability [1]: 81%
Compound: CN1CCN(c2ccc(Nc3cc(C4CC4)[nH]n3)nn2)CC1

IC50 [2]: 93 nM
Compound: CC(=O)N1CCN(c2cc(-c3ccc(Sc4ccccc4C(C)C)c(C(F)(F)F)c3)ccn2)CC1

CLhep predicted [3]: 53 mL/min/kg | solubility [4]: 0.046 µM (≈ 20.4 ng/mL) | solubility [5]: 0.22 µM (≈ 97.8 ng/mL)
Compound: COc1ccccc1N1CCN(CCCCNC(=O)c2ccc(B3C=CC=CN3)cc2)CC1

solubility (physchem): 12100 µg/mL
Compound: CC(=O)c1ccccc1C(C)(C)C

t1/2 [6]: < 1 min | t1/2 [7]: < 1 min | solubility [8]: > 100000 µg/mL
Compound: CNCC(=O)OCc1cccnc1N(C)C(=O)OC(C)[n+]1cnn(C[C@](O)(c2cc(F)ccc2F)[C@H](C)c2nc(-c3ccc(C#N)cc3)cs2)c1 (stereo not given in full)

IC50 [9]: > 1000 nM | solubility (physchem): 56 µM
Compound: Cc1ccc(NC(=O)[C@H]2CC[C@H](CN3CCN(C)CC3)CC2)cc1Nc1nccc(-c2cccnc2)n1

IC50 [9]: > 1000 nM | solubility (physchem): 356 µM
Compound: Cc1ccc(NC(=O)CCCCN2CCN(C)CC2)cc1Nc1nccc(-c2cccnc2)n1

logD [10]: 3.7 | solubility (physchem): 492 µM
Compound: O=C(C1[C@@H]2CC[C@@]1(c1ccccc1)C2)N1CCCCC1 (stereo not given in full)

solubility (physchem): 8080 µg/mL
Compound: CC(C)(C)c1cccc(C(=O)O)c1

pKa [11]: 11
Compound: NC12CC(C1)C2

CLhep predicted [3]: 48 mL/min/kg | solubility [4]: 0.013 µM (≈ 4.14 ng/mL) | solubility [5]: 0.03 µM (≈ 9.55 ng/mL) | IC50 (Cytochrome P450 3A4): > 20 µM | logD [12]: 3.9
Compound: O=C(Cc1ccc(B2C=CC=CN2)cc1)Nc1cc(C2CC2)[nH]n1
IC50 (hERG (KCNH2)): > 30 µM

IC50 [2]: 3000 nM
Compound: CC(=O)N1CCN(c2nc(-c3ccc(Sc4ccccc4C(C)C)c(C(F)(F)F)c3)cs2)CC1

Compound: N#Cc1ccc(Br)cc1
solubility (physchem): 194 µg/mL

pKa [11]: 11
Compound: NC12CCC(CC1)CC2

Compound: CN1CCN(c2ccc(Nc3cc(C4CC4)[nH]n3)nc2)CC1
Stability [1]: 73%

IC50 [2]: 220 nM
Compound: CC(=O)N1CCN(c2cc(-c3ccc(Sc4ccccc4C(C)C)c(C(F)(F)F)c3)ncn2)CC1

solubility [8]: > 200 µg/mL
Compound: CC(=O)Nc1nc2c(Oc3cc(N4CCN(CC(F)(F)F)CC4)ncn3)cccc2s1

solubility [13]: 377 µg/mL (≈ 720 µM) | half-life [14]: 396 min | EC50 [15]: 58 nM | remaining at 0.5 h (in vitro [16]): 60% | Ratio (Human rhinovirus sp.): 223000 M/s | Papp A→B (in vitro [17]): 6 ×10⁻⁶ cm/s
Compound: C#CC[C@@H](C(=O)N[C@H](/C=C/C(=O)OCC)C[C@@H]1CCNC1=O)n1cccc(NC(=O)c2cc(C)on2)c1=O [IMOCITRELVIR]

CLhep predicted [3]: 53 mL/min/kg | solubility [4]: < 0.004 µM | solubility [5]: 0.006 µM (≈ 2.61 ng/mL) | IC50 (Cytochrome P450 3A4): > 20 µM | logD [12]: 3.5
Compound: O=C(NCCS(=O)(=O)c1ccc(C(F)(F)F)cn1)c1ccc(B2C=CC=CN2)cc1
IC50 [18]: > 30 µM

solubility [8]: > 200 µg/mL
Compound: CC(=O)Nc1nc2c(Oc3cc(N4CCN([C@H](C)c5ccc(F)cc5)CC4)ncn3)cccc2s1

IC50 [9]: > 1000 nM
Compound: Cc1ccc(NC(=O)[C@H]2C[C@@H](CN3CCN(C)CC3)C2)cc1Nc1nccc(-c2cccnc2)n1

EC50 (Hepatitis C virus [19]): < 0.1 nM | EC50 (Hepatitis C virus [20]): < 0.1 nM | EC50 (Hepatitis C virus [21]): < 0.1 nM | EC50 (Hepatitis C virus [22]): 0.1 nM
Compound: COC(=O)N[C@@H](C(=O)N1CCC[C@@H]1c1ncc(-c2csc3c(-c4cnc([C@H]5CCCN5C(=O)[C@H](NC(=O)OC)C(C)C)[nH]4)csc23)[nH]1)C(C)C

EC50 (Hepatitis C virus [23]): < 1 nM
Compound: COC(=O)N[C@@H](C(=O)N1CCC[C@@H]1c1ncc(-c2cn3cc(-c4cnc([C@H]5CCCN5C(=O)[C@H](NC(=O)OC)C(C)C)[nH]4)sc3n2)[nH]1)C(C)C

logD [10]: 3.5 | solubility (physchem): 397 µM
Compound: O=C(c1ccccc1-c1ccccc1)N1CCCCC1

Stability [1]: 92%
Compound: CN1CCN(c2ccc(Nc3cc(C4CC4)[nH]n3)cc2)CC1

IC50 [2]: 7 nM
Compound: CC(C)c1ccccc1Sc1ccc(C2CC2C(=O)NCCCN2CCCC2=O)c(Cl)c1Cl (racemic)

half-life [24]: 24 min | logD [10]: 1.9 | solubility [25]: 619 µg/mL (≈ 2840 µM)
Compound: Oc1cc(O)cc(/C=C/C23CC(O)(C2)C3)c1
inhibition at 30 µM (MDA-MB-231): 22% | inhibition at 30 µM (MIA PaCa-2): 30% | inhibition at 30 µM (SU-DHL10): 41%

EC50 (Trypanosoma cruzi): 2300 nM
Compound: O=C(Cn1ccnc1[N+](=O)[O-])NCC1=C/C=C\C=C/C=C\1
